US7988984B2, “Insect repellent and attractant and auto-thermostatic membrane vapor control delivery system” (Energy Related Devices, Inc., priority 2005, dated 2011)

How the values were obtained:
[1] = test system: mosquitoes; experiment: Mosquitoes tracking and locating a human with a fresh coating of DEET on the skin; format: in vivo; conditions: fresh coating of DEET mosquito repellent on skin
[2] = test system: mosquitoes; experiment: Mosquito behaviour at decoy band with a DEET-filled ampoule; format: in vivo; conditions: only DEET used in ampoule of decoy band
Excerpt: Initially the scents are designed to attract the mosquitoes preferentially to the band 1. When the mosquito is nearing contact the DEET will interfere with the chemical sensors of the mosquito and they will use only infrared and visual cues. If she is close enough, within roughly three meters, she will be attracted to the dark pupil pattern 5 and infrared emissions on the band 1 and at close range land on the border area 3 of red or pink and the white area 4 of the decoy. If not close enough for visual cues she may then wander off with some dose of DEET to hamper her long-range ability to find prey. By landing on the decoy 3,4,5 the Mosquito will obtain a high concentration of DEET vapor disabling and interfering with her chemical sensors.
Chemicals such as citronella may confuse the mosquito's appetite. […] If the user moves or brushes the mosquito away this may be sufficient to put them far enough away from visual cues to attack again, reducing the chances that she will be able to find an authentic victim. The ampoules 7, 8 can be designed with a desired diffusion delivery rate of DEET and scents 10, 28 in sufficient volume to effectively deliver a steady chemical vapor for days.

[3] = applied on the skin; from the literature search; cited from earlier work
[4] = highest dose (most concentrated DEET sold); cited from earlier work

CCN(CC)C(=O)c1cccc(C)c1 [DEET, N,N-diethyl-3-methylbenzamide]
ability of mosquitoes to track and locate a human [1]: still able to track and locate a human | mosquito behaviour toward the decoy [2]: repeatably attacking the decoy | fraction of DEET absorbed through the skin [3]: 6-15% | time DEET remains on the skin [4]: roughly 8 hours
